Experimental data as given in ChEMBL document CHEMBL3885881, “DrugMatrix”.

Species: Rattus norvegicus
Assay: DrugMatrix - Regimen: Daily Repeat
Assay type: toxicity, organism-based, Sprague-Dawley
Parameters: regimen Daily Repeat, gender Male, age 6-8 weeks
Conditions: in vivo, po, 54 mg/kg, route oral GAVAGE, dose level Low, vehicle .5 % CMC; for ABSOLUTE BASOPHIL / ABSOLUTE EOSINOPHIL / ABSOLUTE LYMPHOCYTE / ABSOLUTE MONOCYTE / ABSOLUTE SEGMENTED NEUTROPHIL / BASOPHIL / EOSINOPHIL / ERYTHROCYTE COUNT / HEMATOCRIT / HEMOGLOBIN / LEUKOCYTE COUNT / LYMPHOCYTE / MEAN CORPUSCULAR HEMOGLOBIN / MEAN CORPUSCULAR HEMOGLOBIN CONCENTRATION / MEAN CORPUSCULAR VOLUME / MONOCYTE / NEUTROPHIL / NUCLEATED RED BLOOD CELLS / PLATELET COUNT: tissue Blood; for ALANINE AMINOTRANSFERASE / ALBUMIN / ALKALINE PHOSPHATASE / ASPARTATE AMINOTRANSFERASE / BLOOD UREA NITROGEN / CARBON DIOXIDE / CHLORIDE / CHOLESTEROL / CREATINE PHOSPHOKINASE / CREATININE / GLUCOSE / LACTATE DEHYDROGENASE / LIPASE / PHOSPHORUS / SODIUM / TOTAL BILIRUBIN / TOTAL PROTEIN / URIC ACID: tissue Plasma

NC(N)=Nc1nc(CSCCC(N)=NS(N)(=O)=O)cs1 [FAMOTIDINE]
ABSOLUTE BASOPHIL (72 h, time 3 day): 0 CELLS/uL
ABSOLUTE EOSINOPHIL (72 h, time 3 day): 169.67 CELLS/uL
ABSOLUTE LYMPHOCYTE (72 h, time 3 day): 13320 CELLS/uL
ABSOLUTE MONOCYTE (72 h, time 3 day): 113.67 CELLS/uL
ABSOLUTE SEGMENTED NEUTROPHIL (72 h, time 3 day): 2530 CELLS/uL
BASOPHIL (72 h, time 3 day): 0%
EOSINOPHIL (72 h, time 3 day): 1%
ERYTHROCYTE COUNT (72 h, time 3 day): 5.11 x10E6/uL
HEMATOCRIT (72 h, time 3 day): 32.47%
HEMOGLOBIN (72 h, time 3 day): 12.1 G/DL
LEUKOCYTE COUNT (72 h, time 3 day): 16.13 x10E3/uL
LYMPHOCYTE (72 h, time 3 day): 81.67%
MEAN CORPUSCULAR HEMOGLOBIN (72 h, time 3 day): 23.73 pg
MEAN CORPUSCULAR HEMOGLOBIN CONCENTRATION (72 h, time 3 day): 37.27 G/DL
MEAN CORPUSCULAR VOLUME (72 h, time 3 day): 63.57 fL
MONOCYTE (72 h, time 3 day): 0.67%
NEUTROPHIL (72 h, time 3 day): 16.67%
NUCLEATED RED BLOOD CELLS (72 h, time 3 day): 0 /100WBC
PLATELET COUNT (72 h, time 3 day): 1110 x10E3/uL
ALANINE AMINOTRANSFERASE (72 h, time 3 day): 57 u/L
ALBUMIN (72 h, time 3 day): 4.17 G/DL
ALKALINE PHOSPHATASE (72 h, time 3 day): 343.67 u/L
ASPARTATE AMINOTRANSFERASE (72 h, time 3 day): 85 u/L
BLOOD UREA NITROGEN (72 h, time 3 day): 17 mg/dL
CARBON DIOXIDE (72 h, time 3 day): 27.33 mmol/L
CHLORIDE (72 h, time 3 day): 106.67 MEQ/L
CHOLESTEROL (72 h, time 3 day): 74.67 mg/dL
CREATINE PHOSPHOKINASE (72 h, time 3 day): 218 u/L
CREATININE (72 h, time 3 day): 0.19 mg/dL
GLUCOSE (72 h, time 3 day): 162 mg/dL
LACTATE DEHYDROGENASE (72 h, time 3 day): 62.33 u/L
LIPASE (72 h, time 3 day): 9 u/L
PHOSPHORUS (72 h, time 3 day): 14.6 mg/dL
SODIUM (72 h, time 3 day): 148.03 MEQ/L
TOTAL BILIRUBIN (72 h, time 3 day): 0.2 mg/dL
TOTAL PROTEIN (72 h, time 3 day): 5.87 G/DL
URIC ACID (72 h, time 3 day): 1.13 mg/dL
ABSOLUTE BASOPHIL (120 h, time 5 day): 0 CELLS/uL
ABSOLUTE EOSINOPHIL (120 h, time 5 day): 121 CELLS/uL
ABSOLUTE LYMPHOCYTE (120 h, time 5 day): 12766.33 CELLS/uL
ABSOLUTE MONOCYTE (120 h, time 5 day): 233 CELLS/uL
ABSOLUTE SEGMENTED NEUTROPHIL (120 h, time 5 day): 713 CELLS/uL
BASOPHIL (120 h, time 5 day): 0%
EOSINOPHIL (120 h, time 5 day): 1%
ERYTHROCYTE COUNT (120 h, time 5 day): 5.42 x10E6/uL
HEMATOCRIT (120 h, time 5 day): 34.9%
HEMOGLOBIN (120 h, time 5 day): 13.43 G/DL
LEUKOCYTE COUNT (120 h, time 5 day): 13.83 x10E3/uL
LYMPHOCYTE (120 h, time 5 day): 92%
MEAN CORPUSCULAR HEMOGLOBIN (120 h, time 5 day): 24.87 pg
MEAN CORPUSCULAR HEMOGLOBIN CONCENTRATION (120 h, time 5 day): 38.5 G/DL
MEAN CORPUSCULAR VOLUME (120 h, time 5 day): 64.63 fL
MONOCYTE (120 h, time 5 day): 1.67%
NEUTROPHIL (120 h, time 5 day): 5.33%
NUCLEATED RED BLOOD CELLS (120 h, time 5 day): 0 /100WBC
PLATELET COUNT (120 h, time 5 day): 1325.67 x10E3/uL
ALANINE AMINOTRANSFERASE (120 h, time 5 day): 55.33 u/L
ALBUMIN (120 h, time 5 day): 4.33 G/DL
ALKALINE PHOSPHATASE (120 h, time 5 day): 326.67 u/L
ASPARTATE AMINOTRANSFERASE (120 h, time 5 day): 90.67 u/L
BLOOD UREA NITROGEN (120 h, time 5 day): 18 mg/dL
CARBON DIOXIDE (120 h, time 5 day): 24.33 mmol/L
CHLORIDE (120 h, time 5 day): 106.33 MEQ/L
CHOLESTEROL (120 h, time 5 day): 62.67 mg/dL
CREATINE PHOSPHOKINASE (120 h, time 5 day): 662.67 u/L
CREATININE (120 h, time 5 day): 0.19 mg/dL
GLUCOSE (120 h, time 5 day): 182.67 mg/dL
LACTATE DEHYDROGENASE (120 h, time 5 day): 190.67 u/L
LIPASE (120 h, time 5 day): 8 u/L
PHOSPHORUS (120 h, time 5 day): 14.57 mg/dL
SODIUM (120 h, time 5 day): 146.63 MEQ/L
TOTAL BILIRUBIN (120 h, time 5 day): 0.2 mg/dL
TOTAL PROTEIN (120 h, time 5 day): 6.07 G/DL
URIC ACID (120 h, time 5 day): 1.6 mg/dL
